Results published in paper PMC7150891, “Mertansine Inhibits mRNA Expression and Enzyme Activities of Cytochrome P450s and Uridine 5′-Diphospho-Glucuronosyltransferases in Human Hepatocytes and Liver Microsomes” (Pharmaceutics, 2020).
Entries after “also recorded” stand apart in the source; their conditions may differ.

Legend:
[1] = rats, intravenous [3H]-mertansine 0.2 mg/kg, cited from earlier work
[2] = set-up: method as in PMID 25048520, PMID 22752008; conditions: up to 1 µM; cited from earlier work
[3] = target: T1, UGT1A9 (Homo sapiens, UniProt O60656); assay: Inhibition of UGT1A9-catalyzed mycophenolic acid β-D-glucuronidation in ultrapooled human liver microsomes; format: in vitro ADME
T1 construct: ultrapooled human liver microsomes (0.2 mg/mL); from tissue; host or cells: human liver microsomes (ultrapooled)
Description: (§1) The inhibitory potential of mertansine on UGT1A1, UGT1A3, UGT1A4, UGT1A6, UGT1A9, and UGT2B7 activities was evaluated using liquid chromatography–tandem mass spectrometry (LC-MS/MS) with a cocktail of UGT substrates and ultrapooled human liver microsomes. Each incubation mixture was prepared to a final volume of 100 μL as follows: ultrapooled human liver microsomes (0.2 mg/mL), 5 mM UDPGA, 10 mM magnesium chloride, alamethicin (25 μg/mL), 50 mM Tris buffer (pH 7.4), various concentrations of mertansine in methanol (final concentrations of 0.01–50 μM), and the cocktail sets of UGT enzyme-specific substrates. Two cocktail sets were used: set A contained 0.5 μM SN-38 for UGT1A1, 2 μM chenodeoxycholic acid for UGT1A3, and 0.5 μM trifluoperazine for UGT1A4; and set B contained 1 μM N-acetylserotonin for UGT1A6, 0.2 μM mycophenolic acid for UGT1A9, and 1 μM naloxone for UGT2B7. The reactions were initiated by adding UDPGA and incubated in a shaking water bath for 60 min at 37 °C. Reactions were terminated by adding 50 μL of ice-cold acetonitrile containing internal standards (IS, propofol glucuronide for set A and meloxicam for set B). Incubation mixtures were centrifuged at 13,000 g for 8 min at 4 °C. Next, 50 μL of each supernatant of sets A and B was mixed, and aliquots (5 μL) were analyzed using LC-MS/MS. […]

[4] = system: CYP3A4 mRNA; assay: in vitro; conditions: human, hepatocytes, IC50, suppression of CYP3A4 mRNA expression, 1.25–2500 nM
[5] = system: UGT1A1 mRNA; assay: UGT1A1 mRNA level in human hepatocytes after 48 h treatment (RT-PCR); conditions: human, IC50, suppression of UGT1A1 mRNA expression, 1.25–2500 nM
[6] = system: CYP2C19 mRNA; assay: CYP2C19 mRNA level in human hepatocytes after 48 h treatment (RT-PCR); conditions: plated cryopreserved human hepatocytes, IC50, suppression of CYP2C19 mRNA expression, 1.25–2500 nM
[7] = system: CYP2D6; set-up: method as in PMID 25048520, PMID 22752008; conditions: human liver microsomes, competitive; read-out: Ki, CYP2D6-mediated dextromethorphan O-demethylation; cited from earlier work
[8] = MTS colorimetric cytotoxicity assay in human hepatocytes; format: cell-based; conditions: human hepatocytes (lot 319), 48 h mertansine treatment (1.25–6250 nM), lot 319, MTS
Description: The hepatocytes were incubated with 0.0125, 0.0625, 0.125, 0.250, 0.625, 1.25, 2.5, and 6.25 μM mertansine in triplicate for 48 h at 37 °C in 5% CO2. The medium was exchanged with fresh medium containing mertansine every 24 h. Then, 20 μL of MTS solution was added to each well and the plate was incubated for 1 h at 37 °C in 5% CO2. The absorbance of the reaction mixture was measured at 492 nm.

[9] = system: CYP2C9 mRNA; assay: CYP2C9 mRNA level in human hepatocytes after 48 h treatment (RT-PCR); conditions: plated cryopreserved human hepatocytes, IC50, suppression of CYP2C9 mRNA expression, 1.25–2500 nM
[10] = target: T2, UGT2B7 (Homo sapiens, UniProt P16662); assay: Inhibition of UGT2B7-catalyzed naloxone 3-β-D-glucuronidation in ultrapooled human liver microsomes; format: in vitro ADME
T2 construct: ultrapooled human liver microsomes (0.2 mg/mL); from tissue; host or cells: human liver microsomes (ultrapooled)
Description: as §1

[11] = human liver microsomes, mertansine at 50 µM
[12] = Mean ± SD of three human hepatocyte lots, 48 h
[13] = human hepatocytes Lot 319, 48 h
[14] = human hepatocytes Lot 321, 48 h
[15] = human hepatocytes Lot 361, 48 h

T1 sequence (O60656 26-530): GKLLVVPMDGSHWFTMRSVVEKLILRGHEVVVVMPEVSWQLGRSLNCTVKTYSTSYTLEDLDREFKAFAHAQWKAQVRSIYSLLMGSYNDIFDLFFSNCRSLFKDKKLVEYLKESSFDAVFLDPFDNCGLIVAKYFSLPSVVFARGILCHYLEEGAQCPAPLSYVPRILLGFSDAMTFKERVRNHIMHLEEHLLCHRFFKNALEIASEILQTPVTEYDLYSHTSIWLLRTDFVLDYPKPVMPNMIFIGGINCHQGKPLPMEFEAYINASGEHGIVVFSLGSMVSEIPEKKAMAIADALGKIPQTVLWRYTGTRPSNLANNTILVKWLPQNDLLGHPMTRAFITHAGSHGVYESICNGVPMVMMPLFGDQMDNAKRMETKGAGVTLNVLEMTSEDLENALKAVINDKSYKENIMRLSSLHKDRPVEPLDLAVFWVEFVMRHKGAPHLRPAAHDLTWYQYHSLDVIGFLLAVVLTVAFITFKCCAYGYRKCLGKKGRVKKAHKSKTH
T2 sequence (P16662 24-529): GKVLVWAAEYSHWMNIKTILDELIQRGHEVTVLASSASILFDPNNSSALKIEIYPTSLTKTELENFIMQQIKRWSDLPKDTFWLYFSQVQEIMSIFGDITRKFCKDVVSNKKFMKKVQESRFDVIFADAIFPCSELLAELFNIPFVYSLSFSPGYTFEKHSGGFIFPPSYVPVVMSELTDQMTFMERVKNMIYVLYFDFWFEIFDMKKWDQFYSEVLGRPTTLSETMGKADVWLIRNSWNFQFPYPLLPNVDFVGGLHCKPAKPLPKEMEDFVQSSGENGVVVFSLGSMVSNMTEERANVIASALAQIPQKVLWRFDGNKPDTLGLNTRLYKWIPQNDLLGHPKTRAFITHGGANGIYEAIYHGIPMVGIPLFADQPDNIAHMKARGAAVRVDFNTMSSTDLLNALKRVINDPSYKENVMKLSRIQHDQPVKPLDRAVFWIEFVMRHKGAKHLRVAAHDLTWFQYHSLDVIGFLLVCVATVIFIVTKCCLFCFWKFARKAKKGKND

Compound: COc1cc2cc(c1Cl)N(C)C(=O)CC(OC(=O)C(C)N(C)C(=O)CCS)C1(C)OC1C(C)C1CC(O)(NC(=O)O1)C(OC)C=CC=C(C)C2 (centres unmarked) [mertansine, Mertansine]
- Tissue-to-blood radioactivity ratios ([1]; highly perfused organs, for 24 h): 1~11
- Biliary excretion of dosed radioactivity ([1]; over 72 h): ~ 46%
- Dosed radioactivity recovered in urine ([1]; over 120 h): 5%
- Induction potential [2]: no induction potential
- Inhibition of UGT1A9 enzyme activity [3, 11]: no inhibition; also recorded: negligibly inhibited
- IC50, mycophenolic acid β-D-glucuronidation (UGT1A9) ([3]; ultrapooled human liver microsomes, 0.2 µM mycophenolic acid (cocktail)): No inhibition
- IC50 [4, 12]: 0.161 ± 0.167 µM
- IC50 [4, 13]: 0.345 µM
- IC50 [4, 14]: 0.12 µM
- IC50 [4, 15]: 0.0168 µM
- IC50 at 48 h [5, 12]: 0.857 ± 0.782 µM
- IC50 at 48 h [5, 13]: 0.784 µM
- IC50 at 48 h [5, 14]: 0.113 µM
- IC50 at 48 h [5, 15]: 1.67 µM
- IC50 at 48 h [6, 12]: 0.539 ± 0.233 µM
- IC50 at 48 h [6, 13]: 0.574 µM
- IC50 at 48 h [6, 14]: 0.754 µM
- IC50 at 48 h [6, 15]: 0.291 µM
- Ki [7]: 14 µM
- viability at 48 h [8]: > 96.2%
- IC50 at 48 h [9, 12]: 0.578 ± 0.452 µM
- IC50 at 48 h [9, 13]: 0.788 µM
- IC50 at 48 h [9, 14]: 0.888 µM
- IC50 at 48 h [9, 15]: 0.0596 µM
- Inhibition of UGT2B7 enzyme activity [10, 11]: no inhibition; also recorded: negligibly inhibited
- IC50, naloxone 3-β-D-glucuronidation (UGT2B7) ([10]; ultrapooled human liver microsomes, 1 µM naloxone (cocktail)): No inhibition
